Reference: patent US9302999B2, “Substituted triazoles as herbicides” (E. I. DU PONT DE NEMOURS AND COMPANY, priority 2012, dated 2016)
Read-outs that look alike come from different tables or passages of the source.

Key:
Type in all cases: in vivo
[1] = system: barnyardgrass (Echinochloa crus-galli); test: Test A pre-/postemergence: barnyardgrass; conditions: Echinochloa crus-galli, 240 h; for pest or weed control at 125 g/ha: 125 g ai/ha; for pest or weed control at 500 g/ha: 500 g ai/ha
Procedure, shortened: (§1)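 Soil medium was loam blended with sand; treatments pre- and postemergence were applied concurrently, postemergence at one- to two-leaf stage. Approximately ten days in greenhouse preceded visual comparison with untreated controls, scored 0 (no effect) to 100 (complete control).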

[2] = system: crabgrass, large (large crabgrass, Digitaria sanguinalis); test: Test A pre-/postemergence: crabgrass, large; conditions: Digitaria sanguinalis, 240 h; for pest or weed control at 125 g/ha: 125 g ai/ha; for pest or weed control at 500 g/ha: 500 g ai/ha
Procedure, shortened: as §1

[3] = system: foxtail, giant (giant foxtail, Setaria faberii); test: Test A pre-/postemergence: foxtail, giant; conditions: Setaria faberi, 240 h; for pest or weed control at 125 g/ha: 125 g ai/ha; for pest or weed control at 500 g/ha: 500 g ai/ha
Procedure, shortened: as §1

[4] = system: blackgrass (Alopecurus myosuroides); test: Test C pre-/postemergence: blackgrass
Procedure, shortened: (§2)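 Preemergence on seeds in loam/sand, postemergence on 2–18 cm (1–4-leaf) plants in peat-based medium; compounds in non-phytotoxic solvent with surfactant. After 13–15 days in greenhouse, visual rating versus controls, 0 (no effect) to 100 (complete control).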

[5] = system: winter wheat (Triticum aestivum); test: Test C pre-/postemergence: winter wheat
Procedure, shortened: as §2

wild oat (Avena fatua) = test: Test C pre-/postemergence: wild oat
Procedure, shortened: as §2

corn (Zea mays) = test: Test C pre-/postemergence: corn
Procedure, shortened: as §2

[6] = system: large crabgrass (Digitaria sanguinalis); test: Test C pre-/postemergence: large crabgrass
Procedure, shortened: as §2

[7] = system: johnsongrass (Sorghum halepense); test: Test C pre-/postemergence: johnsongrass
Procedure, shortened: as §2

[8] = system: nutsedge, yellow (yellow nutsedge, Cyperus esculentus); test: Test C pre-/postemergence: nutsedge, yellow
Procedure, shortened: as §2

[9] = system: ragweed (common ragweed, Ambrosia elation); test: Test C pre-/postemergence: ragweed
Procedure, shortened: as §2

soybean (Glycine max) = test: Test C pre-/postemergence: soybean
Procedure, shortened: as §2

[10] = Postemergence, 31 g ai/ha, scale 0 to 100 (0 no effect, 100 complete control)
[11] = Postemergence, 62 g ai/ha, scale 0 to 100 (0 no effect, 100 complete control)
[12] = Postemergence, 125 g ai/ha, scale 0 to 100, 0 no effect, 100 complete control
[13] = Postemergence, 250 g ai/ha, scale 0 to 100
[14] = Preemergence, 31 g ai/ha, scale of 0 to 100, 0 is no effect, 100 is complete control
[15] = Preemergence, 62 g ai/ha, scale 0 to 100, 0 no effect, 100 complete control
[16] = Preemergence, 125 g ai/ha, scale 0 to 100, 0 no effect, 100 complete control
[17] = Preemergence, 250 g ai/ha, scale 0 to 100, 0 no effect, 100 complete control
[18] = Preemergence, 62 g ai/ha, scale of 0 to 100, 0 is no effect, 100 is complete control

SMILES: Cc1nn(-c2ccc(C(F)(F)F)cc2)nc1Cc1ccnc(C(F)(F)F)c1 [Compound 47, 4-[[5-methyl-2-[4-(trifluoromethyl)phenyl]-2H-1,2,3-triazol-4-yl]methyl]-2-(trifluoromethyl)pyridine]
- pest or weed control at 125 g/ha ([1]; post-emergence, Postemergence, 0 to 100 scale, 0 is no effect, 100 is complete control, read-out: Barnyardgrass plant response rating): 90%
- pest or weed control at 500 g/ha ([1]; post-emergence, Postemergence, visual rating on 0 to 100 scale (0 no effect, 100 complete control), approximately ten days, read-out: Barnyardgrass plant response rating): 90%
- pest or weed control at 125 g/ha ([1]; pre-emergence, Preemergence, 0 to 100 scale (0 no effect, 100 complete control), read-out: Plant response rating, Barnyardgrass): 90%
- pest or weed control at 500 g/ha ([1]; pre-emergence, Preemergence, 0 to 100 scale, 0 is no effect, 100 is complete control, read-out: Plant response rating, Barnyardgrass): 100%
- pest or weed control at 125 g/ha ([2]; post-emergence, Postemergence, 0 to 100 scale, 0 is no effect, 100 is complete control, read-out: Crabgrass, Large plant response rating): 80%
- pest or weed control at 500 g/ha ([2]; post-emergence, Postemergence, visual rating on 0 to 100 scale (0 no effect, 100 complete control), approximately ten days, read-out: Crabgrass, Large plant response rating): 90%
- pest or weed control at 125 g/ha ([2]; pre-emergence, Preemergence, 0 to 100 scale (0 no effect, 100 complete control), read-out: Plant response rating, Crabgrass, Large): 100%
- pest or weed control at 500 g/ha ([2]; pre-emergence, Preemergence, 0 to 100 scale, 0 is no effect, 100 is complete control, read-out: Plant response rating, Crabgrass, Large): 100%
- pest or weed control at 125 g/ha ([3]; post-emergence, Postemergence, 0 to 100 scale, 0 is no effect, 100 is complete control, read-out: Foxtail, Giant plant response rating): 80%
- pest or weed control at 500 g/ha ([3]; post-emergence, Postemergence, visual rating on 0 to 100 scale (0 no effect, 100 complete control), approximately ten days, read-out: Foxtail, Giant plant response rating): 90%
- pest or weed control at 125 g/ha ([3]; pre-emergence, Preemergence, 0 to 100 scale (0 no effect, 100 complete control), read-out: Plant response rating, Foxtail, Giant): 100%
- pest or weed control at 500 g/ha ([3]; pre-emergence, Preemergence, 0 to 100 scale, 0 is no effect, 100 is complete control, read-out: Plant response rating, Foxtail, Giant): 100%
- Plant response rating, Blackgrass [4, 10]: 40
- Plant response rating, Blackgrass [4, 11]: 45
- Plant response rating, Blackgrass [4, 12]: 60
- Plant response rating, Blackgrass [4, 13]: 90
- Plant response rating, Blackgrass [4, 14]: 90
- Plant response rating, Blackgrass [4, 15]: 98
- Plant response rating, Blackgrass [4, 16]: 100
- Plant response rating, Blackgrass [4, 17]: 100
- Plant response rating, Wheat [5, 10]: 15
- Plant response rating, Wheat [5, 11]: 35
- Plant response rating, Wheat [5, 12]: 45
- Plant response rating, Wheat [5, 13]: 50
- Plant response rating, Wheat [5, 14]: 0
- Plant response rating, Wheat [5, 18]: 5
- Plant response rating, Wheat [5, 16]: 35
- Plant response rating, Wheat [5, 17]: 40
- Plant response rating, Oat, Wild (wild oat (Avena fatua); [10]): 35
- Plant response rating, Oat, Wild (wild oat (Avena fatua); [12]): 85
- Plant response rating, Oat, Wild (wild oat (Avena fatua); [13]): 90
- Plant response rating, Oat, Wild (wild oat (Avena fatua); [14]): 80
- Plant response rating, Oat, Wild (wild oat (Avena fatua); [18]): 90
- Plant response rating, Oat, Wild (wild oat (Avena fatua); [16]): 90
- Plant response rating, Oat, Wild (wild oat (Avena fatua); [17]): 100
- Plant response rating, Corn (corn (Zea mays); [10]): 5
- Plant response rating, Corn (corn (Zea mays); [11]): 15
- Plant response rating, Corn (corn (Zea mays); [12]): 15
- Plant response rating, Corn (corn (Zea mays); [13]): 25
- Plant response rating, Corn (corn (Zea mays); [14]): 0
- Plant response rating, Corn (corn (Zea mays); [15]): 5
- Plant response rating, Corn (corn (Zea mays); [16]): 10
- Plant response rating, Corn (corn (Zea mays); [17]): 40
- Plant response rating, Crabgrass, Large [6, 10]: 5
- Plant response rating, Crabgrass, Large [6, 11]: 15
- Plant response rating, Crabgrass, Large [6, 12]: 35
- Plant response rating, Crabgrass, Large [6, 13]: 50
- Plant response rating, Crabgrass, Large [6, 14]: 45
- Plant response rating, Crabgrass, Large [6, 18]: 98
- Plant response rating, Crabgrass, Large [6, 16]: 100
- Plant response rating, Crabgrass, Large [6, 17]: 100
- Plant response rating, Johnsongrass [7, 10]: 0
- Plant response rating, Johnsongrass [7, 11]: 10
- Plant response rating, Johnsongrass [7, 12]: 35
- Plant response rating, Johnsongrass [7, 13]: 50
- Plant response rating, Johnsongrass [7, 14]: 5
- Plant response rating, Johnsongrass [7, 18]: 10
- Plant response rating, Johnsongrass [7, 16]: 60
- Plant response rating, Johnsongrass [7, 17]: 95
- Plant response rating, Nutsedge, Yellow [8, 10]: 0
- Plant response rating, Nutsedge, Yellow [8, 11]: 0
- Plant response rating, Nutsedge, Yellow [8, 12]: 0
- Plant response rating, Nutsedge, Yellow [8, 13]: 0
- Plant response rating, Nutsedge, Yellow [8, 14]: 0
- Plant response rating, Nutsedge, Yellow [8, 18]: 0
- Plant response rating, Nutsedge, Yellow [8, 16]: 0
- Plant response rating, Nutsedge, Yellow [8, 17]: 0
- Plant response rating, Ragweed [9, 10]: 45
- Plant response rating, Ragweed [9, 11]: 65
- Plant response rating, Ragweed [9, 12]: 75
- Plant response rating, Ragweed [9, 13]: 95
- Plant response rating, Ragweed [9, 14]: 5
- Plant response rating, Ragweed [9, 18]: 15
- Plant response rating, Ragweed [9, 16]: 45
- Plant response rating, Ragweed [9, 17]: 80
- Plant response rating, Soybean (soybean (Glycine max); [10]): 40
- Plant response rating, Soybean (soybean (Glycine max); [11]): 70
- Plant response rating, Soybean (soybean (Glycine max); [12]): 75
- Plant response rating, Soybean (soybean (Glycine max); [13]): 75
- Plant response rating, Soybean (soybean (Glycine max); [14]): 0
- Plant response rating, Soybean (soybean (Glycine max); [18]): 0
- Plant response rating, Soybean (soybean (Glycine max); [16]): 5
- Plant response rating, Soybean (soybean (Glycine max); [17]): 35
